Counter-ions that a name gives are not always drawn.

The compound `Cc1cccc2c1n(CCS(C)(=O)=O)c(=O)n2C(=O)N[C@H](C(=O)N(C)C)C(C)(C)C` came in with a melting point of 190.7 °C.

In the case of `CC[C@H](C)[C@H](NC(=O)n1c(=O)n(CCN2CCCCC2)c2ccccc21)C(N)=O` (as salt: hydrochloride), the melting point was found to be 217.1 °C.
